# Values quoted from earlier work, collected in patent US20140296485A1, “ANIONIC DISPLACER MOLECULES FOR HYDROPHOBIC DISPLACEMENT CHROMATOGRAPHY” (SACHEM, INC., priority 2011, published 2014).
# Conditions: pH-buffering compounds
row,pKa of pH buffer,SMILES
1,5.9,"CC(C)(CC(=O)O)CC(=O)O [3,3-dimethylglutaric acid]"
2,5.2,O=C(O)CCC(=O)O [succinic acid]
